Measurements: patent US12161753B2, “Sustained release biodegradable intracanalicular inserts comprising a hydrogel and an active agent” (OCULAR THERAPEUTIX, INC., priority 2020, dated 2024)
Where “and” joins values, the source holds several entries; their conditions need not be identical. Identical values can stand only once. Like-named read-outs stand apart in the source and are kept apart here.

Assays:
[1] = Example 3.2 proof-of-concept PK study: tear fluid concentration and drug released from inserts; type: in vivo, beagle dogs; details: beagle; insert 0.44 mg cyclosporine, 4a20K SG/trilysine; over 32 days
From the text: Inserts were removed at 32 days to determine the amount of remaining drug compared to the administered dose.

[2] = Particle size of cyclosporine by laser diffraction (effect of surfactants); type: physicochemical; details: no surfactant
[3] = for Cyclosporine per insert (left in removed insert), OD: beagles, initial dose 671±13 μg
immunomodulation = details: Tang-Liu and Acheampong, Clin. Pharmacokinet. 44(3); cited from earlier work
[4] = beagle, insert 0.7 mg cyclosporine, 4a20K SAZ/trilysine

With `CC=CCC(C)C(O)C1C(=O)NC(CC)C(=O)N(C)CC(=O)N(C)C(CC(C)C)C(=O)NC(C(C)C)C(=O)N(C)C(CC(C)C)C(=O)NC(C)C(=O)NC(C)C(=O)N(C)C(CC(C)C)C(=O)N(C)C(CC(C)C)C(=O)N(C)C(C(C)C)C(=O)N1C` (centres unmarked) [Cyclosporine, 30-ethyl-33-(1-hydroxy-2-methylhex-4-enyl)-1,4,7,10,12,15,19,25,28-nonamethyl-6,9,18,24-tetrakis(2-methylpropyl)-3,21-di(propan-2-yl)-1,4,7,10,13,16,19,22,25,28,31-undecazacyclotritriacontane-2,5,8,11,14,17,20,23,26,29,32-undecone] the “Estimated daily delivered dose” value [1] was 6.3 µg/day, the “D10 [Average]” value ([2]; in DIW) was 4 μm and the “D10 [Average]” value ([2]; in PBS) was 4.1 μm. For the same compound, the Released amount ([3]; beagle, insert 0.67 mg cyclosporine, 4a20K SG/trilysine, 28 days) was 3.4 µg, the Released amount ([3]; beagle, insert 0.67 mg cyclosporine, 4a20K SG/trilysine, 50 days) was 3.5 µg and the “Daily estimated delivered dose” value ([3]; beagle, insert 0.67 mg cyclosporine, 4a20K SG/trilysine, over 28 and 50 days) was “approximately 3.5 μg/day”. The “Cyclosporine per insert (left in removed insert), OD” value ([3]; insert removed at Day 28, single inserts) was 596 µg, the “Cyclosporine per insert (left in removed insert), OD” value ([3]; insert removed at Day 50, single inserts) was 451 µg and 520 µg and 521 µg and the “Cyclosporine concentration considered to be required for immunomodulation” value (immunomodulation) was 0.236 µg/mL. The “Average amount of cyclosporine released in 6 weeks” value ([4]; inserts removed at 6 weeks) was 0.37 mg and the “Estimated daily delivered dose” value ([4]; over 6 weeks) was 8.8 µg/day.
